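Values below derive from 48-hour exposures of cells grown in 96-well plates, with endpoints linearly interpolated between the two concentrations bracketing the appropriate inhibition level. GI50: concentration for 50% inhibition of growth. The concentration for full growth arrest is given as TGI.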
Legend:
Assay in all cases: NCI tumour cell line growth inhibition, 48 h; in the data active = GI50 below about 0.43 µM; inactive = the rest
[1] = tested on: MALME-3M melanoma
[2] = tested on: OVCAR-3 ovarian
[3] = tested on: RPMI-8226 leukemia
[4] = tested on: A549 NSCLC
[5] = tested on: SK-MEL-28 melanoma
[6] = tested on: SF-295 CNS
[7] = tested on: SW-620 colon
[8] = tested on: DMS 114 small cell lung
[9] = tested on: IGROV1 ovarian
[10] = tested on: COLO 205 colon
[11] = tested on: NCI-H23 lung
[12] = tested on: HOP-92 NSCLC
[13] = tested on: SK-MEL-2 melanoma
[14] = tested on: LOX IMVI melanoma
[15] = tested on: SK-OV-3 ovarian
[16] = tested on: HCT-116 colon
[17] = tested on: LXFL 529 NSCLC
[18] = tested on: DLD-1 colon
[19] = tested on: SF-268 CNS
[20] = tested on: NCI-H460 lung
[21] = tested on: KM20L2 colon
[22] = tested on: OVCAR-4 ovarian
[23] = tested on: M19-MEL melanoma
[24] = tested on: CCRF-CEM leukemia
[25] = tested on: OVCAR-8 ovarian
[26] = tested on: 786-0 renal
[27] = tested on: HOP-62 NSCLC
[28] = tested on: MOLT-4 leukemia
[29] = tested on: HCC-2998 colon
[30] = tested on: EKVX NSCLC
[31] = tested on: SNB-19 CNS
[32] = tested on: UO-31 renal
[33] = tested on: RXF 393 renal
[34] = tested on: M14 melanoma
[35] = tested on: HT29 colon
[36] = tested on: ACHN renal
[37] = tested on: SF-539 CNS
[38] = tested on: UACC-257 melanoma
[39] = tested on: SN12C renal
[40] = tested on: HL-60(TB) leukemia
[41] = tested on: TK-10 renal
[42] = tested on: KM12 colon
[43] = tested on: UACC-62 melanoma
[44] = tested on: HCT-15 colon
[45] = tested on: A498 renal
[46] = tested on: K-562 leukemia
[47] = tested on: U251 CNS
[48] = tested on: DMS 273 small cell lung
[49] = tested on: SNB-78 CNS
[50] = tested on: MDA-MB-435
[51] = tested on: OVCAR-5 ovarian
[52] = tested on: CAKI-1 renal
[53] = tested on: HS 578T breast
[54] = tested on: T-47D breast
[55] = tested on: MCF7 breast
[56] = tested on: BT-549 breast
[57] = tested on: SK-MEL-5 melanoma
[58] = tested on: NCI-H226 lung
[59] = tested on: MDA-MB-231 breast
[60] = tested on: NCI-H522 lung
[61] = tested on: MDA-N
[62] = tested on: DU-145 prostate
[63] = tested on: SR leukemia
[64] = tested on: NCI/ADR-RES ovarian
[65] = tested on: PC-3 prostate
[66] = tested on: SNB-75 CNS
[67] = tested on: HOP-18 NSCLC

CC1=NC=C(O)c2ccccc2O1
> 100 µM: TGI [1] | TGI [2] | TGI [3] | TGI [4] | TGI [5] | TGI [6] | TGI [7] | TGI [8] | TGI [9] | TGI [10] | TGI [11] | TGI [12] | TGI [13] | TGI [14] | TGI [15] | TGI [16] | TGI [17] | TGI [18] | TGI [19] | TGI [20] | TGI [21] | TGI [22] | TGI [23] | TGI [24] | TGI [25] | TGI [26] | TGI [27] | TGI [28] | TGI [29] | TGI [30] | TGI [31] | TGI [32] | TGI [33] | TGI [34] | TGI [35] | TGI [36] | TGI [37] | TGI [38] | TGI [39] | TGI [40] | TGI [41] | TGI [42] | TGI [43] | TGI [44] | TGI [45] | TGI [46] | TGI [47] | TGI [48] | TGI [49]

COc1ccccc1N1C(=O)CSC1c1cc(OC)c(OC)c(OC)c1 (configuration not stated)
40 µM: TGI [50]
44.7 µM: TGI [61]
> 38.3 µM: TGI [54]
> 76.8 µM: TGI [60]
76.6 µM: TGI [24]
> 20.8 µM: TGI [31]
> 66.1 µM: TGI [43]
98.3 µM: TGI [56]
> 100 µM: TGI [1] | TGI [51] | TGI [52] | TGI [53] | TGI [2] | TGI [3] | TGI [4] | TGI [5] | TGI [6] | TGI [7] | TGI [9] | TGI [10] | TGI [11] | TGI [12] | TGI [13] | TGI [14] | TGI [15] | TGI [16] | TGI [19] | TGI [20] | TGI [55] | TGI [22] | TGI [25] | TGI [26] | TGI [57] | TGI [27] | TGI [28] | TGI [29] | TGI [58] | TGI [30] | TGI [32] | TGI [33] | TGI [59] | TGI [34] | TGI [35] | TGI [36] | TGI [37] | TGI [38] | TGI [39] | TGI [41] | TGI [42] | TGI [62] | TGI [44] | TGI [63] | TGI [64] | TGI [45] | TGI [46] | TGI [47] | TGI [65] | TGI [66]
97.7 µM: TGI [40]

O=C1C(=C([O-])c2ccccc2)C(=O)c2ccccc21.O=C1C(=C([O-])c2ccccc2)C(=O)c2ccccc21.[Co+2]
inactive: GI50 [1] 40.1 µM | GI50 [51] > 100 µM | GI50 [52] 57.3 µM | GI50 [2] 75.1 µM | GI50 [3] > 100 µM | GI50 [4] > 100 µM | GI50 [5] > 100 µM | GI50 [6] 59.6 µM | GI50 [7] > 100 µM | GI50 [9] > 100 µM | GI50 [10] 38.5 µM | GI50 [11] > 100 µM | GI50 [12] 62.4 µM | GI50 [14] 82.1 µM | GI50 [15] > 100 µM | GI50 [16] > 100 µM | GI50 [18] > 100 µM | GI50 [19] > 100 µM | GI50 [21] > 100 µM | GI50 [22] > 100 µM | GI50 [23] > 100 µM | GI50 [24] 38.6 µM | GI50 [67] 54.4 µM | GI50 [25] > 100 µM | GI50 [26] > 100 µM | GI50 [57] > 100 µM | GI50 [27] > 100 µM | GI50 [28] > 100 µM | GI50 [29] > 100 µM | GI50 [58] > 100 µM | GI50 [30] > 100 µM | GI50 [31] > 100 µM | GI50 [32] > 100 µM | GI50 [34] > 100 µM | GI50 [35] > 100 µM | GI50 [36] > 100 µM | GI50 [37] > 100 µM | GI50 [38] 90.8 µM | GI50 [39] > 100 µM | GI50 [41] > 100 µM | GI50 [60] 80.6 µM | GI50 [42] > 100 µM | GI50 [43] 57.1 µM | GI50 [45] > 100 µM | GI50 [46] > 100 µM | GI50 [47] > 100 µM | GI50 [66] > 100 µM
> 100 µM: TGI [1] | TGI [51] | TGI [52] | TGI [2] | TGI [3] | TGI [4] | TGI [5] | TGI [6] | TGI [7] | TGI [9] | TGI [10] | TGI [11] | TGI [12] | TGI [14] | TGI [15] | TGI [16] | TGI [18] | TGI [19] | TGI [21] | TGI [22] | TGI [23] | TGI [24] | TGI [67] | TGI [25] | TGI [26] | TGI [57] | TGI [27] | TGI [28] | TGI [29] | TGI [58] | TGI [30] | TGI [31] | TGI [32] | TGI [34] | TGI [35] | TGI [36] | TGI [37] | TGI [38] | TGI [39] | TGI [41] | TGI [60] | TGI [42] | TGI [43] | TGI [45] | TGI [46] | TGI [47] | TGI [66]
